Experimental findings from PubChem BioAssay (NCI) are described below.

Test systems include BT-549 breast; CAKI-1 renal; EKVX NSCLC; HCT-116 colon; NCI-H460 lung; OVCAR-3 ovarian; SK-MEL-2 melanoma; SK-OV-3 ovarian; RXF 393 renal; LOX IMVI melanoma.
What all share (test): NCI-60 cell line screen, 48 h

Molecules are shown by their SMILES. “And” between values parts separate entries of the source, which are not always exact repeats. Identical values can stand only once.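 Five compound concentrations were applied to cells in 96-well plates for 48 hours; endpoints were derived by simple linear interpolation of the resulting dose-response curve. The concentration for 50% growth inhibition is given as GI50. TGI: total growth inhibition.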 Some results are limits rather than exact numbers.

`COC1=CC(c2ccc[nH]2)=N/C1=C\c1[nH]c(C)c(C(C)=O)c1C`: the GI50 was 0.222 µM in the assay with BT-549 breast; 0.63 µM in the assay with CAKI-1 renal; 2.25 µM with EKVX NSCLC; 0.0576 µM in the assay with HCT-116 colon; 0.451 µM in the assay on NCI-H460 lung; 0.178 µM with OVCAR-3 ovarian. The GI50 in the assay on SK-MEL-2 melanoma is 1.99 µM; with SK-OV-3 ovarian it was greater than 25.9 µM. The TGI with BT-549 breast is greater than 100 µM; in the assay with CAKI-1 renal, greater than 100 µM; in the assay on EKVX NSCLC it was greater than 100 µM; in the assay with HCT-116 colon, greater than 100 µM; with NCI-H460 lung it was greater than 22.8 µM; in the assay on OVCAR-3 ovarian, greater than 100 µM. The TGI in the assay with SK-MEL-2 melanoma was 6.63 µM; in the assay on SK-OV-3 ovarian, greater than 100 µM.

As to `C=C(C)[C@@H]1CC[C@]2(C(=O)O)CC[C@]3(C)[C@H](CC[C@@H]4[C@@]5(C)C/C(=C/c6ccc(OC)cc6)C(=O)C(C)(C)[C@@H]5CC[C@]43C)[C@@H]12`, the GI50 in the assay on BT-549 breast was 1.89 µM; in the assay with CAKI-1 renal it was 2.16 µM; in the assay on EKVX NSCLC, 2.36 µM; in the assay with HCT-116 colon, 1.62 µM; with NCI-H460 lung it was 1.82 µM; in the assay on OVCAR-3 ovarian it was 1.69 µM. The GI50 in the assay with RXF 393 renal was 2.1 µM; in the assay with SK-MEL-2 melanoma, 2.38 µM; in the assay with SK-OV-3 ovarian, 3.29 µM. The TGI in the assay with BT-549 breast is 4.34 µM; with CAKI-1 renal, 11.5 µM; with EKVX NSCLC it was 10.5 µM; with HCT-116 colon it was 3.82 µM; with NCI-H460 lung, 3.92 µM; in the assay with OVCAR-3 ovarian, 3.23 µM. Moreover, the figures for the TGI with RXF 393 renal, with SK-MEL-2 melanoma and with SK-OV-3 ovarian were 5.26 µM, 6.29 µM and 16.1 µM, respectively.

In the case of `N#Cc1cc(N(CCCl)CCCl)c([N+](=O)[O-])cc1[N+](=O)[O-]`, the TGI with BT-549 breast was greater than 100 µM; in the assay with CAKI-1 renal, 69.8 µM; with EKVX NSCLC it was greater than 100 µM; in the assay on HCT-116 colon, greater than 100 µM; in the assay with LOX IMVI melanoma, greater than 100 µM; in the assay with NCI-H460 lung, greater than 100 µM. For the same molecule, the TGI in the assay on OVCAR-3 ovarian, in the assay on SK-MEL-2 melanoma and in the assay on SK-OV-3 ovarian was greater than 100 µM throughout.

On to `COc1ccc(-c2nn(-c3cccc(NC(=O)c4cccc(C(F)(F)F)c4)c3)cc2-c2ccncc2)cc1Cl`, for which the GI50 in the assay on BT-549 breast was 3.14 µM; in the assay with CAKI-1 renal, 2.57 µM; in the assay with HCT-116 colon, 3.05 µM; in the assay on LOX IMVI melanoma it was 3.08 µM; with NCI-H460 lung, 2.95 µM; in the assay on RXF 393 renal, 1.46 µM. Moreover, the GI50 is 3 µM with SK-MEL-2 melanoma and 3.91 µM in the assay on SK-OV-3 ovarian. Also, the TGI was greater than 100 µM in the assay with BT-549 breast; greater than 100 µM in the assay on CAKI-1 renal; greater than 100 µM in the assay with HCT-116 colon; 27.2 µM in the assay on LOX IMVI melanoma; greater than 100 µM in the assay on NCI-H460 lung; 7.78 µM in the assay with RXF 393 renal. For the same molecule, the TGI was 13.2 µM in the assay with SK-MEL-2 melanoma and greater than 100 µM with SK-OV-3 ovarian.

Consider `CSc1nc(C)c(Br)c(=O)n1C1OC(COC(C)=O)C(OC(C)=O)C(OC(C)=O)C1OC(C)=O` (stereo not drawn), for which the GI50 with CAKI-1 renal is > 100 µM and 33.9 µM; in the assay on EKVX NSCLC, > 100 µM and 42.9 µM; in the assay with HCT-116 colon, > 88.4 µM and 35 µM; with SK-OV-3 ovarian it was > 91.7 µM and 42.3 µM. In addition, the TGI with CAKI-1 renal was > 100 µM and 83.9 µM; with EKVX NSCLC, greater than 100 µM; in the assay with HCT-116 colon, greater than 100 µM; in the assay on LOX IMVI melanoma, greater than 100 µM; with NCI-H460 lung it was greater than 100 µM; in the assay on OVCAR-3 ovarian, greater than 100 µM. For the same molecule, the TGI in the assay on RXF 393 renal was 49.2 µM and 40.7 µM; in the assay on SK-MEL-2 melanoma it was greater than 100 µM; in the assay with SK-OV-3 ovarian it was greater than 100 µM.

Regarding `O=C(Nc1ccc(OCc2nnc(-c3ccccc3)o2)c(F)c1)Nc1ccc(Cl)c(C(F)(F)F)c1`, the GI50 is 3.51 µM in the assay on BT-549 breast; 1.81 µM in the assay on HCT-116 colon; 2.83 µM in the assay with LOX IMVI melanoma; 1.52 µM with NCI-H460 lung; 2.06 µM with OVCAR-3 ovarian; 2.62 µM in the assay with RXF 393 renal. In addition, the GI50 in the assay on SK-MEL-2 melanoma was 2.64 µM; in the assay on SK-OV-3 ovarian it was 3.17 µM. The TGI was found to be 13.1 µM with BT-549 breast; 6.37 µM in the assay with HCT-116 colon; 12.9 µM in the assay with LOX IMVI melanoma; 3.7 µM with NCI-H460 lung; 7.25 µM in the assay with OVCAR-3 ovarian; 8.98 µM in the assay on RXF 393 renal. In addition, the TGI is 7.12 µM in the assay on SK-MEL-2 melanoma and 9.46 µM with SK-OV-3 ovarian.

On to `O=C1CC[C@H](c2ccc(O)c3c2C(=O)[C@@H]2O[C@@H]2C3=O)c2cccc(O)c21`, for which the GI50 with BT-549 breast is 2.38 µM; in the assay on CAKI-1 renal, 1.41 µM; with EKVX NSCLC, 13.1 µM; in the assay with HCT-116 colon, 1.97 µM; in the assay on LOX IMVI melanoma, 0.976 µM; with NCI-H460 lung it was 3.74 µM. Also, the figures for the GI50 in the assay with RXF 393 renal, in the assay with SK-MEL-2 melanoma and in the assay on SK-OV-3 ovarian were 1.73 µM, 13 µM and 16.6 µM, respectively. Besides, the TGI in the assay with BT-549 breast came out at 6.42 µM; in the assay with CAKI-1 renal, 9.33 µM; with EKVX NSCLC it was 28.2 µM; in the assay on HCT-116 colon, 3.89 µM; in the assay with LOX IMVI melanoma it was 3.86 µM; in the assay on NCI-H460 lung, 30.4 µM. Further, the TGI in the assay on RXF 393 renal was 3.27 µM; in the assay on SK-MEL-2 melanoma, 26.9 µM; with SK-OV-3 ovarian, 30.4 µM.

`COc1ccc(-c2nc(N3CCOCC3)c3sc(CN(C)c4ncc(C(=O)NO)cn4)cc3n2)cn1`: the GI50 in the assay on BT-549 breast is 0.014 µM; in the assay with CAKI-1 renal, 0.0176 µM; in the assay with NCI-H460 lung it was less than 0.01 µM; with OVCAR-3 ovarian, less than 0.01 µM; in the assay with RXF 393 renal it was less than 0.0122 µM; in the assay with SK-MEL-2 melanoma it was 0.02 µM. The TGI turned out to be 0.15 µM in the assay on BT-549 breast; 0.0436 µM in the assay on CAKI-1 renal; 10.9 µM with NCI-H460 lung; 0.0282 µM in the assay on OVCAR-3 ovarian; 0.0453 µM in the assay on RXF 393 renal; 0.0799 µM with SK-MEL-2 melanoma.

As for `C/C(=C\CCc1ccsc1)CC/C=C(\C)CCCN1CCC(CO)CC1`, the GI50 in the assay on BT-549 breast is 1.7 µM; in the assay with CAKI-1 renal, 2.61 µM; in the assay on HCT-116 colon it was 1.67 µM; with LOX IMVI melanoma it was 1.77 µM; with NCI-H460 lung, 1.92 µM; with OVCAR-3 ovarian it was 2.11 µM. The GI50 in the assay on RXF 393 renal was 1.31 µM; with SK-OV-3 ovarian, 5.15 µM. Also, the TGI in the assay with BT-549 breast is 3.51 µM; in the assay with CAKI-1 renal, 9.22 µM; in the assay with HCT-116 colon, 3.32 µM; in the assay with LOX IMVI melanoma, 3.27 µM; in the assay with NCI-H460 lung it was 3.85 µM; with OVCAR-3 ovarian, 4.29 µM. The values for the TGI with RXF 393 renal and with SK-OV-3 ovarian were 3.19 µM and 18.4 µM, respectively.

Turning to `O=C1c2cc([N+](=O)[O-])cc3cc([N+](=O)[O-])cc(c23)C(=O)N1CCCNCCNCCCN1C(=O)c2cc([N+](=O)[O-])cc3cc([N+](=O)[O-])cc(c23)C1=O`, the TGI came out at 5.51 µM in the assay on BT-549 breast; 8.4 µM in the assay with CAKI-1 renal; 10 µM in the assay on EKVX NSCLC; 0.667 µM in the assay on HCT-116 colon; 3.56 µM in the assay on NCI-H460 lung; 2.35 µM with OVCAR-3 ovarian. The TGI with RXF 393 renal came to 0.375 µM; in the assay with SK-MEL-2 melanoma, 0.323 µM; in the assay with SK-OV-3 ovarian, 8.48 µM.
